Assay results published in patent publication US9751851B2, “Molecules and compositions that inhibit gram negative bacteria and their uses” (THE TRUSTEES OF PRINCETON UNIVERSITY, priority 2013, dated 2017).
Where two headings read alike, the source gives them in different places.

Tested on: wild-type P. aeruginosa PA14
Assay: microbe, parasite or virus in culture
Format: cell-based
Conditions: for Efficacy (%) / inhibition at 100 µM: reduction of pyocyanin vs WT P. aeruginosa PA14: 0% = WT level, 100% = background medium; for IC50: read-out: IC50 for inhibition of pyocyanin production; for inhibition of pyocyanin production (in words): wild-type P. aeruginosa PA14, end point assays at 100 μM
Method: Methods. The oxidized form of pyocyanin imparts a green color to P. aeruginosa cultures, making the production of pyocyanin convenient to monitor by UV/Vis absorbance. Overnight P. aeruginosa cultures were subcultured into 5 mL fresh medium at 1:1000 dilution. Synthetic compounds were assayed at 100 μM for end point assays and at concentrations ranging from 200 nM to 200 μM for titrations following 17 hr of aerobic growth with shaking at 37° C. Cells were separated from culture fluids via centrifugation at 13,000 rpm for 15 min. Culture fluids were passed through 0.22 μm syringe driven filters (Millipore). Cell-free culture fluids were analyzed for pyocyanin using wavelength scans on a Beckman Coulter DU-800 spectrophotometer from 200 nm to 800 nm 695 nm was chosen for graphical representation. Titration data were fit with a variable-slope sigmoidal dose-response curve using GraphPad Prism to determine the IC50 values.
The compounds of the first library were assayed in wild-type (WT) P. aeruginosa PA14. Pyocyanin was used as a read-out for quorum sensing activity based on its absorbance at 695 nm. The efficacy of the compounds at reducing pyocyanin levels was calculated with respect to WT levels of pyocyanin, where WT levels of pyocyanin would lead to a 0% efficacy, and an absorbance equal to the background medium would lead to a 100% efficacy. Agonists that increase pyocyanin production have negative efficacy values.

[1] = Pseudomonas aeruginosa, PA14, 17 h, read-out: Efficacy (%), Table 2, negative = agonist
[2] = Pseudomonas aeruginosa, PA14, 17 h, read-out: Efficacy (%), Table 1, negative = agonist
[3] = Pseudomonas aeruginosa, PA14, 17 h
[4] = Pseudomonas aeruginosa, PA14, 17 h, read-out: Efficacy (%), Table 3
[5] = Pseudomonas aeruginosa, PA14, 17 h, read-out: Efficacy (%), Table 4
[6] = WT P. aeruginosa PA14, 17 hr growth, titration

O=C(COc1cccc(Br)c1)Nc1ccnc(C(F)(F)F)c1 [S57, 4-amino-2-trifluoromethylpyridine-C5-3-bromophenoxyhybrid]
Efficacy (%) (Table 3, listed as Table 3 entry 17): 95%
Efficacy (%) (Table 3, listed as drawing 75): 95 ± 5%

CCCCCCCCCC(=O)CC(=O)Nc1ccnc(F)c1 [S18, 3OC12-4-amino-2-fluoropyridine]
inhibition at 100 µM [1]: -8.5 ± 3%

CCCCCCCCCC(=O)CC(=O)Nc1ccncc1 [compound 14, 3OC12-4-aminopyridine]
inhibition at 100 µM [2]: 63 ± 2%
IC50 [3]: 0.16 µM

CCCCCCCCCC(=O)CC(=O)Nc1ccncn1 [S3, 3OC12-4-aminopyrimidine]
inhibition at 100 µM [2]: 64 ± 0.8%

O=C(COc1cccc(Br)c1)Nc1cc(C(F)(F)F)cc(C(F)(F)F)c1 [S60, 1-amino-3,5-bis(trifluoromethyl)-C6-3-bromophenoxyhybrid]
inhibition at 100 µM [4]: 44%
Efficacy (%) (Table 3): 44 ± 8%

CCCCCCCCCCCC(=O)Nc1ccc2c(c1)c1ccccc1n2CC [S30, C12-3-amino-1-ethylcarbazole]
inhibition at 100 µM [1]: -1 ± 3%

CCCCCCCCCCCC(=O)Nc1cc(C)nc2ccccc12 [S13, C12-4-amino-2-methylquinoline]
inhibition at 100 µM [1]: -24 ± 2%

CCCCCCCCCC(=O)CC(=O)Nc1cnccn1 [S4, 3OC12-2-aminopyrazine]
inhibition at 100 µM [2]: 21 ± 13%

CCCCCCCCCNC(=O)CC(=O)c1ccccc1 [V-06-018, reference compound]
IC50 [3]: 18 µM

COc1cc(NC(=O)COc2cccc(Br)c2)ccn1 [S50, 4-amino-2-methoxypyridine-C8-3-bromophenoxyhybrid]
Efficacy (%) (Table 3, listed as Table 3 entry 10): 60%
Efficacy (%) (Table 3, listed as drawing 68): 60 ± 2%

O=C(COc1cccc(C(F)(F)F)c1)Nc1ccnc(C(F)(F)F)c1 [S75, 4-amino-2-trifluoromethylpyridine-C6-3-trifluoromethylphenoxyhybrid]
inhibition at 100 µM [5]: 59 ± 3%

CCCCCCCCCCCC(=O)Nc1ncccn1 [S11, C12-2-aminopyrimidine]
inhibition at 100 µM [2]: 23 ± 3%

O=C(CCCCC#Cc1cccc(F)c1)Nc1ccnc(C(F)(F)F)c1 [S82, 7-(3-fluorophenyl)-N-(2-(trifluoromethyl)pyridin-4-yl)hept-6-ynamide]
inhibition at 100 µM [5]: 97%
Efficacy (%) (Table 4): 97 ± 4%

CCCCCCCCCC(=O)CC(=O)Nc1ccccn1 [S1, 3OC12-2-aminopyridine]
inhibition at 100 µM [2]: 44 ± 13%

CCCCCCCCCC(=O)CC(=O)Nc1cccnc1 [S2, 3OC12-3-aminopyridine]
inhibition at 100 µM [2]: 10 ± 9%

CCCCCCCCCCCC(=O)Nc1c(F)c(F)nc(F)c1F [S19, C12-4-amino-2,3,5,6-tetrafluoropyridine]
inhibition at 100 µM [1]: -12 ± 3%

CCCCCCOC(=O)C1COc2ccccc21 (stereo not shown) [S28, C6-dihydrobenzofuran ester]
inhibition at 100 µM [1]: 1.5 ± 8%

CCCCCCCCCCCCNC(=O)c1cc2ccccc2n1C [S32, C12-2-amido-1-methylindole]
inhibition at 100 µM [1]: -9.2 ± 4%

CCCCCCCCCCCC(=O)Nc1ccnc(Br)c1 [S17, C12-4-amino-2-bromopyridine]
inhibition at 100 µM [1]: 34 ± 5%

CCCCCCCCCC(=O)CC(=O)Nc1ncccn1 [S5, 3OC12-2-aminopyrimidine]
inhibition at 100 µM [2]: -0.51 ± 4%

O=C(COc1cccc(Br)c1)Nc1ccnc(Cl)c1 [S55, 4-amino-2-chloropyridine-C6-3-bromophenoxyhybrid]
inhibition at 100 µM [4]: 89%
Efficacy (%) (Table 3): 89 ± 5%

CCCCCCCCCCCC(=O)Nc1ccncc1 [S8, C12-4-aminopyridine]
inhibition at 100 µM [2]: 28 ± 11%

O=C(CSc1cccc(F)c1)Nc1ccnc(C(F)(F)F)c1 [S79, 4-amino-2-trifluoromethylpyridine-C6-3-fluoroarylsulfide hybrid]
inhibition at 100 µM [5]: 94%
Efficacy (%) (Table 4): 94 ± 4%

O=C(COc1c(F)cccc1F)Nc1ccnc(C(F)(F)F)c1 [S71, 4-amino-2-trifluoromethylpyridine-C6-2,6-bisfluorophenoxyhybrid]
inhibition at 100 µM [5]: 66 ± 4%

CCCCCCCCCC(=O)CC(=O)Nc1ccc2c(c1)c1ccccc1n2CC [S31, 3OC12-3-amino-1-ethylcarbazole]
inhibition at 100 µM [1]: 9.3 ± 4%

CCCCCCCCCCCC(=O)Nc1cccnc1 [S7, C12-3-aminopyridine]
inhibition at 100 µM [2]: 34 ± 3%

O=C(COc1c(F)c(F)c(F)c(F)c1F)Nc1ccnc(C(F)(F)F)c1 [S72, 4-amino-2-trifluoromethylpyridine-C6-perfluorophenoxyhybrid]
inhibition at 100 µM [5]: 21 ± 14%

O=C(COc1cccc(Br)c1)Nc1ccnc(F)c1 [S40, 4-amino-2-fluoropyridine-C4-3-bromophenoxyhybrid]
Efficacy (%) (Table 3): 32 ± 4%

O=C(CCCOc1cccc(Br)c1)N[C@H]1CCOC1=O [mBL]
inhibition of pyocyanin production (in words): most effective inhibitor of pyocyanin production

O=C(COc1cccc(Br)c1)Nc1ccncc1 [S39, 4-aminopyridine-C6-3-bromophenoxyhybrid]
Efficacy (%) (Table 3, listed as drawing 60): 53 ± 1%

CCCCCCCCCCCC(=O)Nc1ccnc(C)c1 [S12, C12-4-amino-2-methylpyridine]
inhibition at 100 µM [1]: -19 ± 3%

O=C(CCc1ccc(Br)cc1)N[C@H]1CCOC1=O [B7, reference compound]
inhibition of pyocyanin production (in words): limited or no inhibition

O=C(COc1cccc(O)c1)Nc1ccnc(C(F)(F)F)c1 [S77, 4-amino-2-trifluoromethylpyridine-C6-3-hydroxyphenoxyhybrid]
inhibition at 100 µM [5]: 70%
Efficacy (%) (Table 4): 70 ± 7%

COc1cc(NC(=O)COc2cccc(Br)c2)ncn1 [S52, 4-amino-6-methoxypyrimidine-C6-3-bromophenoxyhybrid]
inhibition at 100 µM [4]: 41%
Efficacy (%) (Table 3): 41 ± 9%

O=C(CCCOc1cccc(Br)c1)N[C@H]1CCSC1=O [(S)-mBTL]
IC50 [6]: 4 µM

CCCCCCCCCCCC(=O)Nc1cnccn1 [S10, C12-2-aminopyrazine]
inhibition at 100 µM [2]: -38 ± 3%

O=C(COc1cccc(Br)c1)Nc1ccncc1C(F)(F)F [S62, 4-amino-3-trifluoromethylpyridine-C6-3-bromophenoxyhybrid]
inhibition at 100 µM [4]: 15%
Efficacy (%) (Table 3): 15 ± 7%

CCCCCCCCCCCCNC(=O)c1ccncc1 [S21, C12-isonicotinic amide]
inhibition at 100 µM [1]: 13 ± 3%

O=C(CCCOc1cccc(Br)c1)N[C@@H]1CCSC1=O [(R)-mBTL]
IC50 [6]: 100 µM

COc1cc(NC(=O)CC(=O)COc2cccc(Br)c2)ccn1 [S46, 4-amino-2-methoxypyridine-3OC6-3-bromophenoxyhybrid]
inhibition at 100 µM [4]: 40%
Efficacy (%) (Table 3): 40 ± 6%

O=C(CCCCCCc1cccc(F)c1)Nc1ccnc(C(F)(F)F)c1 [S83, 7-(3-fluorophenyl)-N-(2-(trifluoromethyl)pyridin-4-yl)heptanamide]
inhibition at 100 µM [5]: 96%
Efficacy (%) (Table 4): 96 ± 4%

O=C(COc1cccc(F)c1)Nc1ccnc(C(F)(F)F)c1 [compound 17, 4-amino-2-trifluoromethylpyridine-C6-3-fluorophenoxyhybrid]
inhibition at 100 µM [5]: 103%
Efficacy (%) (Table 4): 103 ± 3%
inhibition of pyocyanin production (in words): highly effective at blocking pyocyanin production

O=C(COc1ccccc1Br)Nc1ccnc(C(F)(F)F)c1 [S65, 4-amino-2-trifluoromethylpyridine-C6-2-bromophenoxyhybrid]
inhibition at 100 µM [5]: 94%
Efficacy (%) (Table 4): 94 ± 4%

O=C(COc1cccc(Cl)c1)Nc1ccnc(C(F)(F)F)c1 [S67, 4-amino-2-trifluoromethylpyridine-C6-3-chlorophenoxyhybrid]
inhibition at 100 µM [5]: 101%
Efficacy (%) (Table 4): 101 ± 3%

CCCCCCCCCCCC(=O)Nc1ccnc(OC)c1 [S15, C12-4-amino-2-methoxypyridine]
inhibition at 100 µM [1]: -5.1 ± 1%
